The text below walks through data of patent US12545640B2, “Substituted 6,7-dihydro-5H-benzo[7]annulene compounds, processes for their preparation and therapeutic uses thereof” (SANOFI, priority 2019, dated 2026).

Each structure is given as a SMILES string. Structures can show the parent of a compound that is named as a salt.

The first assay deals with T1, ERα (Homo sapiens, UniProt P03372).
T1 construct: host or cells: MCF7 cells
T1 sequence (P03372 1-595): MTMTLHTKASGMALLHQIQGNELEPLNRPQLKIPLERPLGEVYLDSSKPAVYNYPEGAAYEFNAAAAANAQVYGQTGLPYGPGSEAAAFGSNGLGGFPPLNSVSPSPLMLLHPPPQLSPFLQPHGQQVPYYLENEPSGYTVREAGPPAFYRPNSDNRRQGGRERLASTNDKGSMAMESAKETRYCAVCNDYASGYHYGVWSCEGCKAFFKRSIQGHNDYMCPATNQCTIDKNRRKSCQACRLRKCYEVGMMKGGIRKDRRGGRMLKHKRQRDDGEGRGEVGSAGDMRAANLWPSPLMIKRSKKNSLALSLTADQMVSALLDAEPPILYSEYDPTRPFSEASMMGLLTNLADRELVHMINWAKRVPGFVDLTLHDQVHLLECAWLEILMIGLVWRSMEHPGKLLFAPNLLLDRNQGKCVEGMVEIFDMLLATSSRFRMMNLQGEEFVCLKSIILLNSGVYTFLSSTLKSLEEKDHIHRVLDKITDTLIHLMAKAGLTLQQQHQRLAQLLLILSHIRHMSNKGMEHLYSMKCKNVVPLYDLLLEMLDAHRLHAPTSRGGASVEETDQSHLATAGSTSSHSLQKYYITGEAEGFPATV
Kind of assay: Estrogen receptor degradation activity: breast cancer cell ERα in cell western assay (MCF7 cells). Format: cell-based. To be noted: 4 hours, final concentrations ranging from 0.3-0.0000018 μM, relative to fulvestrant 0.1 μM positive control. In outline:
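In-cell western: ERα immunostained (rabbit anti-ER, Alexa 488 secondary) and DNA stained with Syto-64 after 4 h compound exposure of MCF7 cells grown in charcoal-stripped serum medium. Final concentrations span 3–0.000018 μM or 0.3–0.0000018 μM (1:5 series); fulvestrant 0.1 μM serves as reference.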
Take `O=C(Nc1ccc2c(c1)CCCC(c1ccc(Cl)cc1Cl)=C2c1ccc(O[C@H]2CCN(CCCF)C2)cc1)C1CC1(F)F` (stereo partly drawn) [Example 87, N-(8-(2,4-dichlorophenyl)-9-(4-(((S)-1-(3-fluoropropyl)pyrrolidin-3-yl)oxy)phenyl)-6,7-dihydro-5H-benzo[7]annulen-3-yl)-2,2-difluorocyclopropane-1-carboxamide]: the “% Degradation At 0.3 μM” value was 73%.
On the same count and under the same terms, as for `O=C(Nc1ccc2c(c1)CCCC(c1ccc(Cl)cc1Cl)=C2c1ccc(O[C@H]2CCN(CCCF)C2)cc1)C1(O)CC1.O=CO` [Example 84, (S)—N-(8-(2,4-dichlorophenyl)-9-(4-((1-(3-fluoropropyl)pyrrolidin-3-yl)oxy)phenyl)-6,7-dihydro-5H-benzo[7]annulen-3-yl)-1-hydroxycyclopropane-1-carboxamide formate], the figure is 71%; as for `CCOc1ccc(C2=C(c3ccc(O[C@H]4CCN(CCCF)C4)cc3)c3ccc(C(N)=O)cc3CCC2)c(F)n1` [Example 79, (S)-8-(6-ethoxy-2-fluoropyridin-3-yl)-9-(4-((1-(3-fluoropropyl)pyrrolidin-3-yl)oxy)phenyl)-6,7-dihydro-5H-benzo[7]annulene-3-carboxamide], 91%.
Turning to `Nc1cc(-c2ccc3c(c2)CCCC(c2ccc(Cl)cc2Cl)=C3c2ccc(O[C@H]3CCN(CCCF)C3)cc2)n[nH]1` [Example 73, (S)-3-(8-(2,4-dichlorophenyl)-9-(4-((1-(3-fluoropropyl)pyrrolidin-3-yl)oxy)phenyl)-6,7-dihydro-5H-benzo[7]annulen-3-yl)-1H-pyrazol-5-amine], the “% Degradation At 0.3 μM” value was 89%.
Regarding `O=[N+]([O-])c1cccc(-c2ccc3c(c2)CCCC(c2cccc(F)c2Cl)=C3c2ccc(O[C@H]3CCN(CCCF)C3)cc2)c1` [Example 96, (S)-3-(4-(8-(2-chloro-3-fluorophenyl)-3-(3-nitrophenyl)-6,7-dihydro-5H-benzo[7]annulen-9-yl)phenoxy)-1-(3-fluoropropyl)pyrrolidine], the “% Degradation At 0.3 μM” value came to 76%.
Take `O=C(O)c1ccccc1-c1ccc2c(c1)CCCC(c1ccc(Cl)cc1Cl)=C2c1ccc(O[C@H]2CCN(CCCF)C2)cc1` [Example 86, (S)-2-(8-(2,4-dichlorophenyl)-9-(4-((1-(3-fluoropropyl)pyrrolidin-3-yl)oxy)phenyl)-6,7-dihydro-5H-benzo[7]annulen-3-yl)benzoic acid]: the “% Degradation At 0.3 μM” value is on record as 88%.
On the same count and under the same terms, as for `C/N=c1\scc(-c2ccc3c(c2)CCCC(c2ccc(Cl)cc2Cl)=C3c2ccc(O[C@H]3CCN(CCCF)C3)cc2)n1C` [Example 69, (S,Z)-4-(8-(2,4-dichlorophenyl)-9-(4-((1-(3-fluoropropyl)pyrrolidin-3-yl)oxy)phenyl)-6,7-dihydro-5H-benzo[7]annulen-3-yl)-N,3-dimethylthiazol-2(3H)-imine hydrochloride], the figure is 69%.

Still in this assay, the particulars now being: 4 hours, final concentrations ranging from 3-0.000018 μM, relative to fulvestrant 0.1 μM positive control.
For the compound `CC(=O)Nc1ccc2c(c1)CCCC(c1ccc(Cl)cc1Cl)=C2c1ccc(O[C@H]2CCN(CCCF)C2)cc1` [Example 48, (S)—N-(8-(2,4-dichlorophenyl)-9-(4-((1-(3-fluoropropyl)pyrrolidin-3-yl)oxy)phenyl)-6,7-dihydro-5H-benzo[7]annulen-3-yl)acetamide], the “% Degradation At 3 μM” value is 70%.
For `O=C(Nc1ccc2c(c1)CCCC(c1ccc(Cl)cc1Cl)=C2c1ccc(O[C@H]2CCN(CCCF)C2)cc1)C1CC1` [Example 60, (S)—N-(8-(2,4-dichlorophenyl)-9-(4-((1-(3-fluoropropyl)pyrrolidin-3-yl)oxy)phenyl)-6,7-dihydro-5H-benzo[7]annulen-3-yl)cyclopropanecarboxamide], the “% Degradation At 3 μM” value came to 74%.
Consider `Oc1cc(-c2ccc3c(c2)CCCC(c2ccc(Cl)cc2Cl)=C3c2ccc(O[C@H]3CCN(CCCF)C3)cc2)on1` [Example 4, (S)-5-(8-(2,4-dichlorophenyl)-9-(4-((1-(3-fluoropropyl)pyrrolidin-3-yl)oxy)phenyl)-6,7-dihydro-5H-benzo[7]annulen-3-yl)isoxazol-3-ol], for which the “% Degradation At 3 μM” value was determined as 87%.
On the same count and under the same terms, as for `CC(C)(C)OC(=O)Nc1ccc2c(c1)CCCC(c1ccc(Cl)cc1Cl)=C2c1ccc(O[C@H]2CCN(CCCF)C2)cc1` [Example 32, Tert-butyl (S)-(8-(2,4-dichlorophenyl)-9-(4-((1-(3-fluoropropyl)pyrrolidin-3-yl)oxy)phenyl)-6,7-dihydro-5H-benzo[7]annulen-3-yl)carbamate], the figure is 73%; as for `FCCCN1CC[C@H](Oc2ccc(C3=C(c4ccc(OC(F)(F)F)cc4)CCCc4cc(-c5cn[nH]c5)ccc43)cc2)C1` [Example 23, (S)-4-(9-(4-((1-(3-fluoropropyl)pyrrolidin-3-yl)oxy)phenyl)-8-(4-(trifluoromethoxy)phenyl)-6,7-dihydro-5H-benzo[7]annulen-3-yl)-1H-pyrazole], 74%.
Still for that read-out and setting: the value for `FCCCN1CC[C@H](Oc2ccc(C3=C(c4ccc(Cl)cc4Cl)CCCc4cc(-c5n[nH]c(=S)o5)ccc43)cc2)C1` [Example 45, (S)-5-(8-(2,4-dichlorophenyl)-9-(4-((1-(3-fluoropropyl)pyrrolidin-3-yl)oxy)phenyl)-6,7-dihydro-5H-benzo[7]annulen-3-yl)-1,3,4-oxadiazole-2(3H)-thione] was 96%; that for `O=C1CCCN1c1ccc2c(c1)CCCC(c1ccc(Cl)cc1Cl)=C2c1ccc(O[C@H]2CCN(CCCF)C2)cc1` [Example 58, (S)-1-(8-(2,4-dichlorophenyl)-9-(4-((1-(3-fluoropropyl)pyrrolidin-3-yl)oxy)phenyl)-6,7-dihydro-5H-benzo[7]annulen-3-yl)pyrrolidin-2-one] was 77%.
As to `CS(=O)(=O)NC(=O)c1ccc2c(c1)CCCC(c1ccc(Cl)cc1Cl)=C2c1ccc(O[C@H]2CCN(CCCF)C2)cc1` [Example 15, (S)-8-(2,4-dichlorophenyl)-9-(4-((1-(3-fluoropropyl)pyrrolidin-3-yl)oxy)phenyl)-(methylsulfonyl)-6,7-dihydro-5H-benzo[7]annulene-3-carboxamide], the “% Degradation At 3 μM” value amounted to 90%.
The same measure, in the same setting: as for `O=C1OCCN1c1ccc(C2=C(c3ccc(O[C@H]4CCN(CCCF)C4)cc3)c3ccc(N4CCOC4=O)cc3CCC2)c(Cl)c1` [Example 41, (S)-3-(8-(2-chloro-4-(2-oxooxazolidin-3-yl)phenyl)-9-(4-((1-(3-fluoropropyl)pyrrolidin-3-yl)oxy)phenyl)-6,7-dihydro-5H-benzo[7]annulen-3-yl)oxazolidin-2-one], the figure is 74%; as for `Nc1nc(-c2ccc3c(c2)CCCC(c2ccc(Cl)cc2Cl)=C3c2ccc(O[C@H]3CCN(CCCF)C3)cc2)cs1` [Example 61, (S)-4-(8-(2,4-dichlorophenyl)-9-(4-((1-(3-fluoropropyl)pyrrolidin-3-yl)oxy)phenyl)-6,7-dihydro-5H-benzo[7]annulen-3-yl)thiazol-2-amine], 76%.
